# ChEMBL document CHEMBL5126603, “Discovery of Clinical Candidate CHF-6366: A Novel Super-soft Dual Pharmacology Muscarinic Antagonist and β2 Agonist (MABA) for the Inhaled Treatment of Respiratory Diseases” (J Med Chem, 2022)
# Key:
# [1] = Cmax in Dunkin-Hartley guinea pig lung at 500 nmol/Kg, IT(Intratracheal) measured after 72 hrs by LC/MS-MS analysis; assay type: ADME, tissue-based, Cavia porcellus; set-up: time 72 hrs, dose 500 nmol/kg, route it(Intratracheal); conditions: inhaled or intranasal
# [2] = Tmax in Dunkin-Hartley guinea pig lung at 500 nmol/Kg, IT(Intratracheal) measured after 72 hrs by LC/MS-MS analysis; assay type: ADME, tissue-based, Cavia porcellus; conditions: inhaled or intranasal
# [3] = AUClast in Dunkin-Hartley guinea pig lung at 500 nmol/Kg, IT(Intratracheal) measured after 72 hrs by LC/MS-MS analysis; assay type: ADME, tissue-based, Cavia porcellus; conditions: in vivo, inhaled_or_intranasal
# [4] = AUCinfinity in Dunkin-Hartley guinea pig lung at 500 nmol/Kg, IT(Intratracheal) measured after 72 hrs by LC/MS-MS analysis; assay type: ADME, tissue-based, Cavia porcellus; set-up: dose 500 nmol/kg, time 72 hrs, route it(Intratracheal); conditions: in vivo, inhaled_or_intranasal
# [5] = Half life in Dunkin-Hartley guinea pig lung at 500 nmol/Kg, IT(Intratracheal) measured after 72 hrs by LC/MS-MS analysis; assay type: ADME, tissue-based, Cavia porcellus; conditions: inhaled or intranasal
# [6] = Cmax in Dunkin-Hartley guinea pig plasma at 500 nmol/Kg, IT(Intratracheal) measured after 72 hrs by LC/MS-MS analysis; assay type: ADME, cell-free, Cavia porcellus; set-up: dose 500 nmol/kg, time 72 hrs, route it(Intratracheal); conditions: inhaled or intranasal
# [7] = Tmax in Dunkin-Hartley guinea pig plasma at 500 nmol/Kg, IT(Intratracheal) measured after 72 hrs by LC/MS-MS analysis; assay type: ADME, cell-free, Cavia porcellus; conditions: inhaled or intranasal
# [8] = AUClast in Dunkin-Hartley guinea pig plasma at 500 nmol/Kg, IT(Intratracheal) measured after 72 hrs by LC/MS-MS analysis; assay type: ADME, cell-free, Cavia porcellus; set-up: time 72 hrs, dose 500 nmol/kg, route it(Intratracheal); conditions: inhaled or intranasal
# [9] = AUCinfinity in Dunkin-Hartley guinea pig plasma at 500 nmol/Kg, IT(Intratracheal) measured after 72 hrs by LC/MS-MS analysis; assay type: ADME, cell-free, Cavia porcellus; set-up: dose 500 nmol/kg, time 72 hrs, route it(Intratracheal); conditions: inhaled or intranasal
# [10] = Half life in Dunkin-Hartley guinea pig plasma at 500 nmol/Kg, IT(Intratracheal) measured after 72 hrs by LC/MS-MS analysis; assay type: ADME, cell-free, Cavia porcellus; conditions: inhaled or intranasal
# [11] = Mutagenicity in Salmonella typhimurium assessed as induction of reverse mutation by Ames test; assay type: toxicity; conditions: salmonella enterica subsp. enterica serovar typhimurium
# [12] = Mutagenicity in Escherichia coli assessed as induction of reverse mutation by Ames test; assay type: toxicity
# Trachea [13] = test: (§1) Bifunctional antagonist activity at muscarinic M3 receptor /agonist activity at beta-2 adrenoceptor in Dunkin-Hartley guinea pig trachea assessed as inhibition of acetylcholine-induced bronchoconstriction at 1 nmol/Kg, IT(Intratracheal) measured after 5 mins by Konzett-Roessler methodology relative to control; assay type: functional; conditions: Cavia porcellus
# Trachea [14] = test: as §1, with “15” for “5”; assay type: functional; conditions: Cavia porcellus, 0.25 h
# Trachea [15] = test: as §1, with “30” for “5”; assay type: functional; conditions: Cavia porcellus, 0.5 h
# [16] = Metabolic stability in human lung S9 fraction assessed as half life at 1 uM measured after 0 to 60 mins in presence of NADPH by LC-MS/MS analysis; assay type: ADME, subcellular; conditions: time 0-60 min
# [17] = Metabolic stability in human plasma assessed as half life at 5 uM measured upto 120 mins by LC-MS/MS analysis; assay type: ADME, cell-free
# [18] = Metabolic stability in rat plasma assessed as half life at 5 uM measured upto 120 mins by LC-MS/MS analysis; assay type: ADME, cell-free
# [19] = Metabolic stability in Dunkin-Hartley guinea pig plasma assessed as half life at 5 uM measured upto 120 mins by LC-MS/MS analysis; assay type: ADME, cell-free, Cavia porcellus
# Trachea [20] = test: In vivo bifunctional antagonist activity at muscarinic M3 receptor /agonist activity at beta-2 adrenoceptor in Dunkin-Hartley guinea pig trachea assessed as time duration for inhibition of carbachol induced contraction measured […]; assay type: functional, Cavia porcellus
# Trachea [21] = test: In vivo bifunctional antagonist activity at muscarinic M3 receptor /agonist activity at beta-2 adrenoceptor in Dunkin-Hartley guinea pig trachea assessed as inhibition of carbachol induced contraction; assay type: functional, tissue-based; conditions: Cavia porcellus
# [22] = Metabolic stability in rat lung S9 fraction assessed as half life at 1 uM measured after 0 to 60 mins in presence of NADPH by LC-MS/MS analysis; assay type: ADME, subcellular; conditions: time 0-60 min
# [23] = Metabolic stability in human hepatocytes assessed as clearance at 1 uM measured per 10^6 cells and incubated upto 90 mins by LC-MS/MS analysis; assay type: ADME, cell-based, Hepatocyte; conditions: read-out: CLH
# [24] = Metabolic stability in Dunkin-Hartley guinea pig hepatocytes assessed as clearance at 1 uM measured per 10^6 cells and incubated upto 90 mins by LC-MS/MS analysis; assay type: ADME, cell-based, Cavia porcellus, Hepatocyte; conditions: read-out: CLH
# [25] = Metabolic stability in rat hepatocytes assessed as clearance at 1 uM measured per 10^6 cells and incubated upto 90 mins by LC-MS/MS analysis; assay type: ADME, cell-based, Hepatocyte; conditions: read-out: CLH
# [26] = Metabolic stability in human liver microsomes assessed as clearance at 1 uM measured per mg protein incubated upto 60 mins in presence of NADPH by LC-MS/MS analysis; assay type: ADME, Microsome; conditions: read-out: CLH
# [27] = Metabolic stability in rat liver microsomes assessed as clearance at 1 uM measured per mg protein incubated upto 60 mins in presence of NADPH by LC-MS/MS analysis; assay type: ADME, Microsome; conditions: read-out: CLH
# [28] = Metabolic stability in Dunkin-Hartley guinea pig lung S9 fraction assessed as half life at 1 uM measured after 0 to 60 mins in presence of NADPH by LC-MS/MS analysis; assay type: ADME, subcellular, Cavia porcellus; conditions: time 0-60 min
# [29] = Protein binding in human plasma assessed as unbound fraction at 5 uM measured after 4 hrs by LC-MS/MS analysis; assay type: ADME, cell-free
# [30] = Protein binding in Dunkin-Hartley guinea pig plasma assessed as unbound fraction at 5 uM measured after 4 hrs by LC-MS/MS analysis; assay type: ADME, cell-free, Cavia porcellus
# [31] = Protein binding in rat plasma assessed as unbound fraction at 5 uM measured after 4 hrs by LC-MS/MS analysis; assay type: ADME, cell-free
# [32] = Apparent permeability across apical to basolateral side in human Caco-2 cells at 10 uM and measured after 2 hrs by LC-MS/MS analysis; assay type: ADME, cell-based
# [33] = Apparent permeability across basolateral to apical side in human Caco-2 cells at 10 uM and measured after 2 hrs by LC-MS/MS analysis; assay type: ADME, cell-based
# [34] = Efflux ratio of apparent permeability from basolateral to apical side over apical to basolateral side in human Caco-2 cells at 10 uM and measured after 2 hrs by LC-MS/MS analysis; assay type: ADME, cell-based
# [35] = In vivo antagonist activity at muscarinic M3 receptor in Dunkin-Hartley guinea pig trachea assessed as inhibition of acetylcholine-induced bronchoconstriction at 3 nmol/Kg, IT(Intratracheal) measured after 1 hr in presence of ICI-118551 by Konzett-Roessler methodology relative to control; assay type: functional; conditions: Cavia porcellus
# [36] = In vivo agonist activity at beta-2 adrenoceptor in Dunkin-Hartley guinea pig trachea assessed as inhibition of histamine-induced bronchoconstriction at 3 nmol/Kg, IT(Intratracheal) measured after 1 hr by Konzett-Roessler methodology relative to control; assay type: functional; conditions: Cavia porcellus
# Trachea [37] = test: as §1, with “3” for “1”, “1 hr” for “5 mins”; assay type: functional; conditions: Cavia porcellus
# [38] = In vivo antagonist activity at muscarinic M3 receptor in Dunkin-Hartley guinea pig trachea assessed as inhibition of acetylcholine-induced bronchoconstriction at 3 nmol/Kg, IT(Intratracheal) measured after 24 hr in presence of ICI-118551 by Konzett-Roessler methodology relative to control; assay type: functional; conditions: Cavia porcellus
# [39] = In vivo agonist activity at beta-2 adrenoceptor in Dunkin-Hartley guinea pig trachea assessed as inhibition of histamine-induced bronchoconstriction at 3 nmol/Kg, IT(Intratracheal) measured after 24 hr by Konzett-Roessler methodology relative to control; assay type: functional; conditions: Cavia porcellus
# Trachea [40] = test: as §1, with “3” for “1”, “24 hr” for “5 mins”; assay type: functional; conditions: Cavia porcellus
smiles,measurement,setting,value
Cn1nc(C(=O)O)cc1COc1cccc([C@@H](NC(=O)O[C@H]2CN3CCC2CC3)c2ccccc2)c1,Cmax,[1],1450 ng/g
same,Tmax,[2],4.98 min
same,AUClast,[3],6226 ng·h/g
same,AUC,[4],6465 ng·h/g
same,half-life,[5],316 min
same,Cmax,[6],41.7 ng/g
same,Tmax,[7],4.98 min
same,AUC(0-t) at 72 h,[8],179 ng·h/mL
same,AUC(0-inf),[9],296 ng·h/mL
same,half-life,[10],1240 min
same,Activity,[11],Non-Toxic
same,Activity,[12],Non-Toxic
same,inhibition in vivo at 0.001 µmol/kg,Trachea [13],0.84%
same,inhibition in vivo at 0.001 µmol/kg,Trachea [14],1.92%
same,inhibition in vivo at 0.001 µmol/kg,Trachea [15],3.36%
O=C(N[C@@H](c1ccccc1)c1cccc(OCc2ccc(C(=O)OCCCCNC[C@H](O)c3ccc(O)c4[nH]c(=O)ccc34)cc2)c1)O[C@H]1CN2CCC1CC2,half-life at 1 µM,[16],26.4 min
same,half-life at 5 µM,[17],< 5 min
same,half-life at 5 µM,[18],< 5 min
same,half-life at 5 µM,[19],69.8 min
same,Time,Trachea [20],>225 min
same,IC50,Trachea [21],0.1 nM
O=C(N[C@H](c1ccccc1)c1cccc(OCc2ccc(C(=O)OCCCCNC[C@H](O)c3ccc(O)c4[nH]c(=O)ccc34)cc2)c1)O[C@H]1CN2CCC1CC2,half-life at 1 µM,[16],16.8 min
same,half-life at 5 µM,[17],< 5 min
same,half-life at 5 µM,[18],< 5 min
same,half-life at 5 µM,[19],46.7 min
same,Time,Trachea [20],180 min
same,IC50,Trachea [21],1.26 nM
COc1cc(C(=O)OCCCCNC[C@H](O)c2ccc(O)c3[nH]c(=O)ccc23)ccc1COc1cccc([C@@H](NC(=O)O[C@H]2CN3CCC2CC3)c2ccccc2)c1,half-life at 1 µM,[16],89.3 min
same,half-life at 5 µM,[17],21 min
same,half-life at 5 µM,[18],12 min
same,half-life at 5 µM,[19],83.5 min
same,Time,Trachea [20],<135 min
same,IC50,Trachea [21],1.26 nM
O=C(N[C@@H](c1ccccc1)c1cccc(OCc2ccc(CCNC[C@H](O)c3ccc(O)c4[nH]c(=O)ccc34)cc2)c1)O[C@H]1CN2CCC1CC2 (racemic),half-life at 1 µM,[22],200 min
same,hepatocyte CLint at 1 µM,[23],6 µL/min/1e6 cells
same,hepatocyte CLint at 1 µM,[24],17 µL/min/1e6 cells
same,hepatocyte CLint at 1 µM,[25],25 µL/min/1e6 cells
same,microsomal CLint at 1 µM,[26],16 µL/min/mg
same,microsomal CLint at 1 µM,[27],10 µL/min/mg
same,half-life at 1 µM,[16],216 min
same,half-life at 1 µM,[28],70 min
same,Fu,[29],98%
same,Fu,[30],99%
same,Fu,[31],98%
same,"Papp A→B at 2 h, 10 µM",[32],2 ×10⁻⁶ cm/s
same,"Papp B→A at 2 h, 10 µM",[33],3.1 ×10⁻⁶ cm/s
same,"efflux ratio at 2 h, 10 µM",[34],1.5
same,inhibition in vivo at 0.003 µmol/kg,[35],78%
same,inhibition in vivo at 0.003 µmol/kg,[36],67%
same,inhibition in vivo at 0.003 µmol/kg,Trachea [37],91%
same,inhibition in vivo at 0.003 µmol/kg,[38],54%
same,inhibition in vivo at 0.003 µmol/kg,[39],35%
same,inhibition in vivo at 0.003 µmol/kg,Trachea [40],77%
